From patent publication US20250195490A1, “ALPHA-METHYLENE AND AMINOMETHYL LACTONES AND LACTAMS FOR TREATMENT OF CLOSTRIDIOIDES DIFFICILE INFECTION (CDI)” (Purdue Research Foundation, priority 2022, published 2025)
Converted amounts (≈) assume the structure as drawn.

Assays:
MRSA (USA300) = experiment: microbe, parasite or virus in culture; type: cell-based, Staphylococcus aureus; settings: Staphylococcus aureus; aerobic, 37° C., at least 18 hours; read-out: MIC MRSA (USA300)
Procedure: (§1) Method: The minimum inhibitory concentration (MIC) of the compounds and control drugs, linezolid (antibiotic), vancomycin (antibiotic), 5-fluorocytosine (5-FC, antifungal drug), and fluconazole (antifungal drug) was determined using the broth microdilution method according to the guidelines outlined by the Clinical and Laboratory Standards Institute (CLSI) against clinically relevant bacterial (methicillin-resistant Staphylococcus aureus (MRSA), vancomycin-resistant Enterococcus faecalis (VRE), vancomycin-resistant Enterococcus faecium (VRE), Clostridioides difficile and Escherichia coli) and fungal (Candida albicans) strains. A solution equivalent to 0.5 McFarland standard was prepared from each strain and diluted in cation-adjusted Mueller-Hinton broth (for S. aureus and E. coli), tryptone soy broth (for E. faecalis), or brain heart infusion broth (for E. faecium) to achieve a bacterial inoculum of about 5×10^5 CFU/mL. C. difficile strains were cultured in brain heart infusion broth supplemented with hemin and vitamin K. C. albicans was diluted in RPMI medium supplemented with 3-(N-morpholino) propanesulfonic acid to achieve a fungal concentration of about 1.5×10^3 CFU/mL. Compounds and control drugs were added in the first row of the 96-well plates and diluted with media containing bacteria (to achieve a concentration gradient ranging from 128 to 1 μg/mL). For MRSA, VRE, and E. coli strains, plates were then incubated aerobically at 37° C. for at least 18 hours. C. albicans was incubated aerobically at 37° C. for 24 hours. Plates containing C. difficile were incubated anaerobically at […] for 48 hours.

E. faecalis (VRE) = experiment: microbe, parasite or virus in culture; type: cell-based, Enterococcus faecalis; settings: Enterococcus faecalis, VRE; aerobic, 37° C., at least 18 hours
Procedure: as §1

E. coli (TolC mutant) = experiment: MIC by broth microdilution against E. coli (TolC mutant); type: cell-based, Escherichia coli; settings: Escherichia coli, 18 h, read-out: MIC E. coli (TolC mutant)
Procedure: as §1

CC(=O)NC[C@H]1CN(c2ccc(N3CCOCC3)c(F)c2)C(=O)O1 [Linezolid, reference compound]
MIC (MRSA (USA300)): 1 µg/mL (≈ 2.96 µM) | MIC (E. faecalis (VRE)): 1 µg/mL (≈ 2.96 µM) | MIC (E. coli (TolC mutant)): 16 µg/mL (≈ 47.4 µM)
